Patent US9487474B2, “Imino compounds as protecting agents against ultraviolet radiations” (Elkimia, Inc., priority 2012, dated 2016)

What was measured:
Type in all cases: physicochemical
[1] = In vitro UV protection performance (SPF in vitro, UVAPF, Critical Wavelength) by the Colipa UVA in vitro Method on PMMA plates; settings: for Critical Wavelength λc value: PMMA plate, after UV exposure, 90% of the absorbance integral 290 to 400 nm, >= 370 nm = broad-spectrum; for protection against UVA rays (UVAPF in vitro), in words: UVAPF in vitro measurements; for UVAPF: thin film 0.75 mg/cm^2 on PMMA plate, after UV irradiation (pre-irradiation 800 J/m^2-eff); for SPF in vitro: thin film 0.75 mg/cm^2 on roughened PMMA plate, absorbance before UV exposure
Protocol: The following compounds were evaluated by an in vitro study for the Sun Protection Factor (SPF) in vitro, the UVA Protection Factor (UVAPF) and the Critical Wavelength value using the Colipa UVA in vitro Method.
For determining the SPF in vitro value, the protection performance of the compounds against erythemally-effective UV radiation, largely confined to the UVB (290-320 nm) and short-wavelength UVA (320-340) region was calculated from the measured in vitro transmittance. The in vitro UVAPF, the UVA protection (320-400 nm) was calculated from the measured in vitro transmittance after irradiation. The Critical Wavelength Value was defined as the wavelength at which the integral of the spectral absorbance curve reached 90% of the integral over the UV spectrum from 290 to 400 nm. It has been settled that this value must be equal or over 370 nm so as to classify the product as broad-spectrum. The study consisted in a comparative assay of non-treated plates against plates treated with each of the compounds and was based on the evaluation of UV-transmittance through a thin film of sunscreen sample spread on a roughened substrate, before an after exposure to a controlled dose of UV radiation from a UV source. A Kontron 933 spectrophotomer equipped with a UV source, an integrating sphere and a monochromatic light able to deliver a flow of energy between 290 and 400 nm was used. The transmittance values were measured at 1 nm intervals. A 10-4 precision laboratory balance was used to control deposited product weight. The irradiation was provided by Sunset Atlas CPS+ with standard filter. Temperature regulation of the equipment was done in the range of 25-35° C. A pre-irradiation dose of 4 times 200 J/m^2-eff (800 J/m^2-eff) was delivered. The substrate was the material to which the sunscreen product was applied. Polymethylmethacrylate (PMMA) plates were used and were roughened on one side to a three-dimensional surface topography of 5 micrometers. Each compound was weighted and applied evenly to the PMMA plate with a 2-phase spreading to achieve a 0.75 mg/cm^2 weight/surface ratio. Spreading was performed with a light spreading move for approximately 30 seconds followed by spreading with greater pressure for approximately 30 seconds. The resulting sample was left to equilibrate for 15 minutes in the dark at room temperature to ensure a self-leveling if the formula. To account for lack of photostability, a pre-irradiation was necessary. The pre-irradiation dose was 4 minimal erythema dose (MEDs), equivalent to 800 J/m^2-eff. Five measurements of spectral irradiance transmitted for each wavelength through the PMMA plate covered with the sunscreen product were obtained after pre-irradiation of the sunscreen product [P1( ), P2( ), P3( ), P4( ) and P5( )]. For each compound, mean absorbance values were determined from at least three individual PMMA plates. To validate the accuracy of the results, a control product with an established SPF of 18-20, Lot 11T0313 was tested simultaneously with the compounds. SPF in vitro was calculated for each plate using the following equation (Colipa 2011):
[formula] Where: • E( )=Erythema action spectrum (CEI-1987) • I( )=Spectral irradiance of the UV source • A0( )=Mean monochromatic absorbance measurements per plate of the test compound layer before UV exposure, at each wavelength • d=Wavelength step (1 nm) Calculation of the UVAPF for Each Plate after UV Irradiation (Colipa 2011)
[formula] Where: • P( )=PPD action spectrum • I( )=Spectral irradiance of the UV source • A( )=Mean monochromatic absorbance measurements per plate of the test compound layer after UV exposure, at each wavelength • C=Coefficient of adjustment • d=Wavelength step (1 nm) Calculation of the Critical Wavelength (FDA 2011)
[formula] Where: • A( )=Mean monochromatic absorbance measurements per plate of the compound layer after UV exposure, at each wavelength • d=Wavelength step (1 nm) […]

[2] = UVA/UVB absorption of compound films on glass slides, with and without 20 hours ageing under UV (Xenon instrument); settings: for Tested compound UVA % / Tested compound UVB %: absorption A = (Tslide−Tslide+sample)/Tslide×100; for Plate + tested compound UVA % / Plate + tested compound UVB %: transmission T (%)
Protocol: Compounds IE1, IF1, IA2, IE4, IA1, IE2, ID2 and ID3 were evaluated for their UV absorption properties. Samples were prepared as follows: 20 mg of each of the compounds were dissolved into 1 ml of methanol to yield 20 g/L solutions. The solutions were then applied onto two glass slides each. For each compound, one of the slides was aged for 20 hours under UV (Xenon instrument). Samples were then analyzed using a UVA-UVB spectrophotometer in transmission T (%) mode and compared to the non-aged slides. Absorption (A) was calculated using the following formula: Asample=(Tslide−Tslide+sample)/Tslide×100

[3] = UV spectrum (λmax) of the isolated compound
Description: In other embodiments, the present invention provides methods and techniques for determining the UV-absorbing capacity of the compounds as defined herein. The UV-absorbing properties of the compounds defined herein can be determined by spectrophotometer according to techniques and methods well known in the art. For example, ultraviolet-visible spectroscopy or ultraviolet-visible spectrophotometry (UV-Vis or UV/Vis) may be used to calculate the wavelength of maximal absorption (λmax) of the compound.

[4] = 20 g/L methanol solution on glass slide, no ageing
[5] = ageing for 20 hours under UV (Xenon instrument)

Structure (SMILES)	Critical Wavelength λc value [1] [nm]	protection against UVA rays (UVAPF in vitro), in words [1]	UVAPF [1]	SPF in vitro [1]	Tested compound UVA % ([2]; ageing for 20 hours under UV) [%]	Tested compound UVB % ([2]; ageing for 20 hours under UV) [%]	Tested compound UVA % ([2]; no ageing) [%]	Tested compound UVB % ([2]; no ageing) [%]	Plate + tested compound UVA % [2, 4] [%]	Plate + tested compound UVB % [2, 4] [%]	Plate + tested compound UVA % [2, 5] [%]	Plate + tested compound UVB % [2, 5] [%]	UV: λmax ([3]; MeOH/water with both 0.1% formic acid) [nm]	UV: λmax ([3]; MeOH/water) [nm]
COc1ccc(/N=C2\CC(C)(C)CC3=C2SCC(C(=O)O)N3)cc1 (stereo not shown) [IA1]	390	good protection against UVA rays	8.7	2.4	95.1	98.6	98.9	95.8	0.99	1.88	4.33	0.64	–	–
COc1ccc(/N=C2/C=C(NCC(=O)O)CCC2)cc1 [(E)-2-((3-((4-methoxyphenyl)imino)cyclohex-1-en-1-yl)amino)acetic acid]	–	–	–	–	–	–	–	–	–	–	–	–	~318	–
CC1(C)CC2=C(SCC(C(=O)O)N2)/C(=N/c2ccccc2)C1 (stereo not shown) [IE2, (E)-6,6-dimethyl-8-(phenylimino)-3,4,5,6,7,8-hexahydro-2H-benzo[b][1,4]thiazine-3-carboxylic acid]	–	–	–	–	95.0	95.6	96.1	95.3	3.51	2.12	4.43	1.97	–	–
CC1(C)CC2=C(SCC(C(=O)O)N2)/C(=N/c2ccc(C(=O)NC(C)(C)C)cc2)C1 (stereo not shown) [IE1]	391	good protection against UVA rays	13.5	3.4	98.2	97.7	98.9	98.4	1.00	0.73	1.63	1.02	–	–
COc1ccc(/N=C2\CC(C)(C)CC3=C2SCC(C(=O)O)N3)cc1OC (stereo not shown) [IF1]	390	–	4.1	2.1	99.6	99.1	99.7	99.3	0.24	0.31	0.37	0.39	–	–
COc1ccc(/N=C2/C=C(Nc3ccc(OC)cc3)CC(C)(C)C2)cc1 [(E)-N,N′-(5,5-dimethylcyclohex-1-ene-1-yl-3-ylidene)bis(4-methoxyaniline)]	–	–	–	–	–	–	–	–	–	–	–	–	–	~345
CC1(C)CC2=C(SCC(C(=O)O)N2)/C(=N/c2ccc(F)cc2)C1 (stereo not shown) [IE4]	390	good protection against UVA rays	8.6	4.5	98.4	98.2	99.5	99.0	0.49	0.46	1.46	0.81	–	–
COc1ccc(/N=C2/C=C(NCC(=O)O)CC(C)(C)C2)cc1 [ID2]	–	–	–	–	98.9	99.0	99.5	99.2	0.44	0.34	1.00	0.46	–	–
COc1ccc(/N=C2/C=C(NCC(=O)O)CCC2)cc1 [ID3]	–	–	–	–	98.6	98.6	99.5	99.3	0.47	0.33	1.28	0.62	–	–
